Experiments:
human KCNQ2 = target: T1, human KCNQ2 (Homo sapiens, UniProt O43526); experiment: 86Rb flux in KCNQ2 expressing cells; format: cell-based; conditions: KCNQ2 opening; for Emax: Max effect determined in % of the effect of 30 mM KCl
T1 construct: expressed in transfected cells
Description: Chinese hamster ovary cells (CHO-K1) were stably transfected with human KCNQ2 inserted into the pCl-neo vector (Promega). Cells were plated at 2×10^5 cells/ml in 96-well plates in 100 μl media (MEM Alpha media, 10% FBS, 1% P/S, 1% L-Glu, and 1 mg/ml G418). At the time of plating the cells were furthermore loaded with 1 μCi/ml 86Rb over-night. On the subsequent day, the cells were washed with 3×50 μl assay buffer (HBSS+10 mM HEPES, pH 7.4) and incubated in 50 μl buffer with retigabine for 30 minutes at 37° C. Following this preincubation, the cell membrane was depolarized for 30 minutes at 37° C. with 15 mM KCl (final concentration) in assay buffer supplemented with the appropriate amount of compound to maintain drug concentration. The supernatant was removed and placed in pony-vials with 0.5 ml scintillation liquid and counted. The dose-dependent effect of the investigated compounds on the efflux of 86Rb through the hKCNQ2 channels were calculated according to the four parameter logistic equation: Y=Bottom+(Top-Bottom)/(1+10̂((LogEC50-X)*HillSlope)), where X is the logarithm of concentration, Y is the response, and HillSlope is the hill coefficient.
A representative selection of compounds of the invention were tested in the assay in addition to 6 comparative examples wherein 0 has been substituted with a 6-membered ring comprising up to two N atoms. Comparative 1-4 has been disclosed in WO 2009/127678 or WO 2009/127679 and comparative 5-6 are close analogues.

human α7 receptor = human α7 receptor (Homo sapiens, UniProt P36544); experiment: α7 NNR flux assay (FDSS Ca assay); format: cell-based; conditions: positive allosteric modulation; rat GH4C1 cell line stably expressing human α7; acetylcholine 20 μM; % modulation relative to PNU-120596 set to 100%
human α7 receptor, sequence (P36544 23-502): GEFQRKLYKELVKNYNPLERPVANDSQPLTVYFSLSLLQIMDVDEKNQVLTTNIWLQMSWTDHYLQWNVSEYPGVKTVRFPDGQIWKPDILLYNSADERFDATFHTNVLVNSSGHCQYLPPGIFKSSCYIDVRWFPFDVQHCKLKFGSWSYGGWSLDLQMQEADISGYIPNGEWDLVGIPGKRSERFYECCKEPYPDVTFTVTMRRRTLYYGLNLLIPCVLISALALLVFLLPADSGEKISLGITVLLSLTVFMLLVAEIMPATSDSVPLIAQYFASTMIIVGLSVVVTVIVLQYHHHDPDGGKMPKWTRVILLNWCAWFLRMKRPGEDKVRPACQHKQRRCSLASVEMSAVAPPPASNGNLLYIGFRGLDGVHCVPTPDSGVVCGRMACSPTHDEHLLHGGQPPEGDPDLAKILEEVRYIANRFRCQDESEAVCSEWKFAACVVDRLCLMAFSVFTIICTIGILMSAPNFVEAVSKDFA
Summary of the method: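 GH4C1 rat cells stably expressing human α7, loaded with Calcium-4 dye plus 2.5 mM probenecid in HBSS/20 mM HEPES pH 7.4, 3 mM CaCl2. Compounds (0.039–20 μM final) preincubated ~95 s before 20 μM acetylcholine (~EC100); Ex480/Em540 fluorescence on FDSS. Values are % modulation, with 3 μM PNU-120596 set to 100%.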

[1] = tested on: α7 nACh receptors expressed in Xenopus oocytes; experiment: α7 NNR oocyte assay (electrophysiological recordings); format: cell-based, human or rat; conditions: tested subsequently in the oocyte assay
Description: Expression of α7 nACh Receptors in Xenopus oocytes.
Oocytes were surgically removed from mature female Xenepus laevis anaesthetized in 0.4% MS-222 for 10-15 min. The oocytes were then digested at room temperature for 2-3 hours with 0.5 mg/ml collagenase (type IA Sigma-Aldrich) in OR2 buffer (82.5 mM NaCl, 2.0 mM KCl, 1.0 mM MgCl2 and 5.0 mM HEPES, pH 7.6). Oocytes avoid of the follicle layer were selected and incubated for 24 hours in Modified Barth's Saline buffer (88 mM NaCl, 1 mM […], 15 mM HEPES, 2.4 mM NaHCO3, 0.41 mM CaCl2, 0.82 mM MgSO4, 0.3 mM Ca(NO3)2) supplemented with 2 mM sodium pyruvate, 0.1 μg/l penicillin and 0.1 μg/l streptomycin. Stage 1V oocytes were identified and injected with 4.2-48 nl of nuclease free water containing 0.1-1.2 ng of cRNA coding for human α7 nACh receptors or 3.0-32 ng of cRNA coding for rat α7 nACh receptors and incubated at 18° C. for 1-10 days when they were used for electrophysiological recordings.
Electrophysiological Recordings of α7 nACh Receptors Expressed in Oocytes.
Oocytes were used for electrophysiological recordings 1-10 days after injection. Oocytes were placed in a 1 ml bath and perfused with Ringer buffer (115 mM NaCl, 2.5 mM KCl, 10 mM HEPES, 1.8 mM CaCl2, 0.1 mM MgCl2, pH 7.5). Cells were impaled with agar plugged 0.2-1 MΩ electrodes containing 3 M KCl and voltage clamped at −90 mV by a GeneClamp 500B amplifier. The experiments were performed at room temperature. Oocytes were continuously perfused with Ringer buffer and the drugs were applied in the perfusate. ACh (30 μM) applied for 30 sec were used as the standard agonist for activation of the α7 nACh receptors. In the standard screening set-up the new test compound (10 μM or 30 μM) were applied for 1 min of pre-application allowing for evaluation of agonistic activity followed by 30 sec of co-application with ACh (30 μM) allowing for evaluation of PAM activity. […] The drug induced effects on both the peak response and the total charge (AUC) response were calculated thus giving the effect of drug induced PAM activity as fold modulation of the control response. […]

Row | Emax (human KCNQ2) [%] | EC50 (human α7 receptor) [µM] | NNR PAM activity in the oocyte assay compared with the flux assay [1] | EC50 (human KCNQ2; 86Rb efflux, CHO-K1 cells stably transfected with human KCNQ2) [µM] | Structure (SMILES)
1 | 1 | 0.9 | significantly better NNR PAM activity |  | Cc1cc2cc(CNC(=O)c3cc(C(C)C)no3)ccc2[nH]1 [Compound 34, 3-isopropyl-N-[(2-methyl-1H-indol-5-yl)methyl]isoxazole-5-carboxamide]
2 |  | > 20 | significantly better NNR PAM activity |  | Cc1cc(C(=O)N[C@H](C)c2ccc3[nH]c(C)cc3c2)sn1 [Compound 47, 3-methyl-N-[(1R)-1-(2-methyl-1H-indol-5-yl)ethyl]isothiazole-5-carboxamide]
3 | 5.3 | 6.1 |  | > 50 | CC(C)c1cc(C(=O)NCc2ccc3[nH]c(C(F)(F)F)cc3c2)on1 [Compound 67, 3-isopropyl-N-[[2-(trifluoromethyl)-1H-indol-5-yl]methyl]isoxazole-5-carboxamide]
4 |  | > 20 | significantly better NNR PAM activity |  | Cc1cc2cc([C@@H](C)NC(=O)c3cnn(CC(F)(F)F)c3)ccc2[nH]1 [Compound 86, N-[(1R)-1-(2-methyl-1H-indol-5-yl)ethyl]-1-(2,2,2-trifluoroethyl)pyrazole-4-carboxamide]

From patent publication US20120252853A1, “Positive allosteric modulators of nicotinic acetylcholine receptor” (H. Lundbeck A/S, priority 2011, published 2012)
